Patent US9932637B2, “Genetic polymorphisms associated with cardiovascular disorders and drug response, methods of detection and uses thereof” (CELERA CORPORATION, priority 2003, dated 2018)

Tested on: patients with prior myocardial infarction (CARE study)
Experiment: CARE: association of SNPs with pravastatin treatment in cardiovascular events prevention (logistic regression, odds ratio pravastatin vs placebo by genotype; Table 8)
Format: in vivo, human
Details: All Patients; for Coronary Artery Bypass or Revascularization, n/total (%) / Total Coronary Heart Disease Events, n/total (%) / Fatal/Non-fatal Atherosclerotic CV Disease, n/total (%) / Hosp. for Cardiovascular Disease, n/total (%) / Total Cardiovascular Disease Events, n/total (%) / Fatal/Non-fatal MI (def & prob), n/total (%) / Fatal CHD/Definite Non-fatal MI, n/total (%) / Non-fatal MI (def & prob), n/total (%): Prava
Description: In order to identify genetic markers associated with acute coronary events (e.g. MI, stroke, unstable angina, congestive heart failure, etc.) or response to statin treatment for the prevention of coronary events, samples from the Cholesterol and Recurrent Events (CARE) study (a randomized multicentral double-blinded trial on secondary prevention of acute coronary events with pravastatin) (Sacks et al., 1991, Am. J. Cardiol. 68: 1436-1446) were genotyped. A well-documented myocardial infarction (MI) was one of the enrollment criteria for entry into the CARE study. Patients were enrolled in the CARE trial from 80 participating study centers. […] Patients were randomized to receive either 40 mg of pravastatin once daily or a matching placebo. The primary endpoint of the trial was death from coronary heart disease and the median duration of follow-up was 5.0 years (range, 4.0 to 6.2 years). […] Secondary endpoints of other related cardiovascular or metabolic disease events, and changes in clinical variables were also recorded in pravastatin-treated and placebo groups. All individuals included in the study had signed a written informed consent form and the study protocol was approved by the respective Institutional Review Boards (IRBs).
For genotyping SNPs in CARE patient samples, DNA was extracted from blood samples using conventional DNA extraction methods such as the QIA-amp kit from Qiagen. Genotypes were obtained on an ABI PRISM® 7900HT Sequence Detection PCR system (Applied Biosystems, Foster City, Calif.) by kinetic allele-specific PCR, similar to the method described by Germer et al. (Germer S., Holland M. J., Higuchi R. 2000, Genome Res. 10: 258-266).
Statistical analysis for association of SNPs with pravastatin treatment in cardiovascular events prevention (Table 8) was carried out using an overall logistic regression model that included an intercept, a parameter for the effect of a genotype containing two rare alleles versus a genotype containing no rare alleles, a parameter for the effect of a genotype containing one rare allele versus a genotype containing no rare alleles, a parameter for the effect of use of pravastatin versus the use of placebo, and parameters for the interaction effects between SNP genotypes and pravastatin use. The test of the overall model is a chi-square test with two degrees of freedom for analyses containing all three genotypes, and one degree of freedom for analyses containing two genotypes.
Effect sizes were estimated through odds ratios (pravastatin group versus placebo) for carriers of each genotype (groups of 0, 1, and 2 minor allele carriers). The effect was considered to be significant if p-value for testing whether any of the interactions between SNP genotypes and pravastatin use were <0.05. […] Odds ratios less than one indicate that the specific SNP allele has a protective effect and odds ratios greater than one indicate that the specific SNP allele has an adverse effect.

[1] = HLA-DPB1 hCV8851085, Coronary Artery Bypass or Revascularization
[2] = HLA-DPB1 hCV8851085, Fatal/Non-fatal Atherosclerotic CV Disease
[3] = HLA-DPB1 hCV8851085, Fatal/Non-fatal MI (def & prob)
[4] = HLA-DPB1 hCV8851085, Hosp. for Cardiovascular Disease
[5] = HLA-DPB1 hCV8851085, Total Cardiovascular Disease Events
[6] = HLA-DPB1 hCV8851085, Total Coronary Heart Disease Events
[7] = HLA-DPB1 hCV25651174, 2 Rare Alleles, n/total 20/144

Question: For `CC[C@H](C)C(=O)O[C@H]1C[C@H](O)C=C2C=C[C@H](C)[C@H](CC[C@@H](O)C[C@@H](O)CC(=O)O)[C@H]21` [pravastatin], which “Coronary Artery Bypass or Revascularization, n/total (%)” value (HLA-DPB1 hCV8851085, 0 Rare Alleles, n/total 129/919) is on record?
Answer: Its value is “(14.0%)”.

Question: And the “Total Coronary Heart Disease Events, n/total (%)” value (HLA-DPB1 hCV8851085, 0 Rare Alleles, n/total 263/919)?
Answer: Its value is “(28.6%)”.

Question: And the “Fatal/Non-fatal Atherosclerotic CV Disease, n/total (%)” value (HLA-DPB1 hCV8851085, 0 Rare Alleles, n/total 301/919)?
Answer: Its value is “(32.8%)”.

Question: And the “Hosp. for Cardiovascular Disease, n/total (%)” value (HLA-DPB1 hCV8851085, 0 Rare Alleles, n/total 363/919)?
Answer: Its value is “(39.5%)”.

Question: What about the “Total Cardiovascular Disease Events, n/total (%)” value (HLA-DPB1 hCV8851085, 0 Rare Alleles, n/total 374/919) of the same molecule?
Answer: Its value is “(40.7%)”.

Question: And the “Fatal/Non-fatal MI (def & prob), n/total (%)” value (from here on “Fatal/Non-fatal MI … (%)”) (HLA-DPB1 hCV8851085, 1 Rare Allele, n/total 53/521)?
Answer: The value was “(10.2%)”.

Question: And the “Coronary Artery Bypass or Revascularization, n/total (%)” value (HLA-DPB1 hCV8851085, 1 Rare Allele, n/total 72/521)?
Answer: The value was “(13.8%)”.

Question: What about the “Total Coronary Heart Disease Events, n/total (%)” value (HLA-DPB1 hCV8851085, 1 Rare Allele, n/total 151/521) of the same molecule?
Answer: Its value is “(29.0%)”.

Question: And the “Fatal/Non-fatal Atherosclerotic CV Disease, n/total (%)” value (HLA-DPB1 hCV8851085, 1 Rare Allele, n/total 174/521)?
Answer: The value was “(33.4%)”.

Question: And the “Hosp. for Cardiovascular Disease, n/total (%)” value (HLA-DPB1 hCV8851085, 1 Rare Allele, n/total 209/521)?
Answer: The value was “(40.1%)”.

Question: What about the “Total Cardiovascular Disease Events, n/total (%)” value (HLA-DPB1 hCV8851085, 1 Rare Allele, n/total 214/521) of the same molecule?
Answer: Its value is “(41.1%)”.

Question: What about the “Fatal/Non-fatal MI … (%)” value (HLA-DPB1 hCV8851085, 2 Rare Alleles, n/total 11/73) of the same molecule?
Answer: Its value is “(15.1%)”.

Question: And the “Coronary Artery Bypass or Revascularization, n/total (%)” value (HLA-DPB1 hCV8851085, 2 Rare Alleles, n/total 17/73)?
Answer: The value was “(23.3%)”.

Question: What about the “Total Coronary Heart Disease Events, n/total (%)” value (HLA-DPB1 hCV8851085, 2 Rare Alleles, n/total 26/73) of the same molecule?
Answer: The value was “(35.6%)”.

Question: And the “Fatal/Non-fatal Atherosclerotic CV Disease, n/total (%)” value (HLA-DPB1 hCV8851085, 2 Rare Alleles, n/total 29/73)?
Answer: The value was “(39.7%)”.

Question: What about the “Hosp. for Cardiovascular Disease, n/total (%)” value (HLA-DPB1 hCV8851085, 2 Rare Alleles, n/total 33/73) of the same molecule?
Answer: Its value is “(45.2%)”.

Question: What about the “Total Cardiovascular Disease Events, n/total (%)” value (HLA-DPB1 hCV8851085, 2 Rare Alleles, n/total 35/73) of the same molecule?
Answer: Its value is “(47.9%)”.

Question: And the “Prava vs. Placebo Odds Ratio, 0 Rare Alleles” value [1]?
Answer: Its value is 0.68.

Question: What about the “Prava vs. Placebo Odds Ratio, 1 Rare Alleles” value [1] of the same molecule?
Answer: Its value is 0.60.

Question: And the “Prava vs. Placebo Odds Ratio, 2 Rare Alleles” value [1]?
Answer: The value was 3.54.

Question: And the “Prava vs. Placebo Odds Ratio, 0 Rare Alleles” value [2]?
Answer: Its value is 0.70.

Question: And the “Prava vs. Placebo Odds Ratio, 1 Rare Alleles” value [2]?
Answer: Its value is 0.79.

Question: And the “Prava vs. Placebo Odds Ratio, 2 Rare Alleles” value [2]?
Answer: Its value is 2.12.

Question: And the “Prava vs. Placebo Odds Ratio, 0 Rare Alleles” value [3]?
Answer: The value was 0.57.

Question: And the “Prava vs. Placebo Odds Ratio, 1 Rare Alleles” value [3]?
Answer: Its value is 0.75.

Question: What about the “Prava vs. Placebo Odds Ratio, 2 Rare Alleles” value [3] of the same molecule?
Answer: Its value is 2.07.

Question: What about the “Prava vs. Placebo Odds Ratio, 0 Rare Alleles” value [4] of the same molecule?
Answer: Its value is 0.71.

Question: And the “Prava vs. Placebo Odds Ratio, 1 Rare Alleles” value [4]?
Answer: Its value is 0.74.

Question: What about the “Prava vs. Placebo Odds Ratio, 2 Rare Alleles” value [4] of the same molecule?
Answer: The value was 1.79.

Question: And the “Prava vs. Placebo Odds Ratio, 0 Rare Alleles” value [5]?
Answer: The value was 0.70.

Question: What about the “Prava vs. Placebo Odds Ratio, 1 Rare Alleles” value [5] of the same molecule?
Answer: The value was 0.74.

Question: What about the “Prava vs. Placebo Odds Ratio, 2 Rare Alleles” value [5] of the same molecule?
Answer: Its value is 1.77.

Question: What about the “Prava vs. Placebo Odds Ratio, 0 Rare Alleles” value [6] of the same molecule?
Answer: Its value is 0.72.

Question: And the “Prava vs. Placebo Odds Ratio, 1 Rare Alleles” value [6]?
Answer: The value was 0.76.

Question: And the “Prava vs. Placebo Odds Ratio, 2 Rare Alleles” value [6]?
Answer: The value was 2.25.

Question: What about the “Fatal CHD/Definite Non-fatal MI, n/total (%)” value (HLA-DPB1 hCV25651174, 0 Rare Alleles, n/total 58/733) of the same molecule?
Answer: Its value is “(7.9%)”.

Question: What about the “Non-fatal MI (def & prob), n/total (%)” value (HLA-DPB1 hCV25651174, 0 Rare Alleles, n/total 63/733) of the same molecule?
Answer: Its value is “(8.6%)”.

Question: What about the “Fatal/Non-fatal MI … (%)” value (HLA-DPB1 hCV25651174, 0 Rare Alleles, n/total 65/733) of the same molecule?
Answer: The value was “(8.9%)”.

Question: And the “Coronary Artery Bypass or Revascularization, n/total (%)” value (HLA-DPB1 hCV25651174, 0 Rare Alleles, n/total 103/733)?
Answer: The value was “(14.1%)”.

Question: And the “Total Coronary Heart Disease Events, n/total (%)” value (HLA-DPB1 hCV25651174, 0 Rare Alleles, n/total 207/733)?
Answer: The value was “(28.2%)”.

Question: What about the “Fatal/Non-fatal Atherosclerotic CV Disease, n/total (%)” value (HLA-DPB1 hCV25651174, 0 Rare Alleles, n/total 230/733) of the same molecule?
Answer: The value was “(31.4%)”.

Question: What about the “Hosp. for Cardiovascular Disease, n/total (%)” value (HLA-DPB1 hCV25651174, 0 Rare Alleles, n/total 282/733) of the same molecule?
Answer: The value was “(38.5%)”.

Question: What about the “Total Cardiovascular Disease Events, n/total (%)” value (HLA-DPB1 hCV25651174, 0 Rare Alleles, n/total 291/733) of the same molecule?
Answer: The value was “(39.7%)”.

Question: And the “Non-fatal MI (def & prob), n/total (%)” value (HLA-DPB1 hCV25651174, 1 Rare Allele, n/total 55/632)?
Answer: The value was “(8.7%)”.

Question: What about the “Fatal/Non-fatal MI … (%)” value (HLA-DPB1 hCV25651174, 1 Rare Allele, n/total 61/632) of the same molecule?
Answer: Its value is “(9.7%)”.

Question: And the “Fatal CHD/Definite Non-fatal MI, n/total (%)” value (HLA-DPB1 hCV25651174, 1 Rare Allele, n/total 62/632)?
Answer: The value was “(9.8%)”.

Question: What about the “Coronary Artery Bypass or Revascularization, n/total (%)” value (HLA-DPB1 hCV25651174, 1 Rare Allele, n/total 87/632) of the same molecule?
Answer: Its value is “(13.8%)”.

Question: And the “Total Coronary Heart Disease Events, n/total (%)” value (HLA-DPB1 hCV25651174, 1 Rare Allele, n/total 182/632)?
Answer: The value was “(28.8%)”.

Question: What about the “Fatal/Non-fatal Atherosclerotic CV Disease, n/total (%)” value (HLA-DPB1 hCV25651174, 1 Rare Allele, n/total 218/632) of the same molecule?
Answer: The value was “(34.5%)”.

Question: What about the “Hosp. for Cardiovascular Disease, n/total (%)” value (HLA-DPB1 hCV25651174, 1 Rare Allele, n/total 259/632) of the same molecule?
Answer: The value was “(41.0%)”.

Question: What about the “Total Cardiovascular Disease Events, n/total (%)” value (HLA-DPB1 hCV25651174, 1 Rare Allele, n/total 265/632) of the same molecule?
Answer: The value was “(41.9%)”.

Question: What about the “Non-fatal MI (def & prob), n/total (%)” value (HLA-DPB1 hCV25651174, 2 Rare Alleles, n/total 16/144) of the same molecule?
Answer: Its value is “(11.1%)”.

Question: And the “Fatal CHD/Definite Non-fatal MI, n/total (%)” value [7]?
Answer: The value was “(13.9%)”.

Question: And the “Fatal/Non-fatal MI … (%)” value [7]?
Answer: Its value is “(13.9%)”.

Question: And the “Coronary Artery Bypass or Revascularization, n/total (%)” value (HLA-DPB1 hCV25651174, 2 Rare Alleles, n/total 27/144)?
Answer: Its value is “(18.8%)”.

Question: What about the “Total Coronary Heart Disease Events, n/total (%)” value (HLA-DPB1 hCV25651174, 2 Rare Alleles, n/total 50/144) of the same molecule?
Answer: Its value is “(34.7%)”.

Question: And the “Fatal/Non-fatal Atherosclerotic CV Disease, n/total (%)” value (HLA-DPB1 hCV25651174, 2 Rare Alleles, n/total 54/144)?
Answer: Its value is “(37.5%)”.

Question: What about the “Hosp. for Cardiovascular Disease, n/total (%)” value (HLA-DPB1 hCV25651174, 2 Rare Alleles, n/total 61/144) of the same molecule?
Answer: Its value is “(42.4%)”.
